Source: ChEMBL document CHEMBL5724914, “Linking interpersonal differences in gut microbiota composition and drug biotransformation activity” (2024)

Experiments:
[1] = (§1) The drug is tested on WLS-039 corresponding to human gut metagenome with ENA study accession number: PRJEB37062 and ENA sample accession number: ERS12561746 for biotransformation under anaerobic condition. The drug concentrations were measured over 9 timepoints collected between 0 and 24 hours of incubation by liquid-chromatography-coupled mass spectrometry (LC–MS); conditions: 2 µM
[2] = human gut metagenome, 24 h, 2 µM
[3] = as §1, with “WLS-010” for “WLS-039”, “ERS12561743” for “ERS12561746”; conditions: 2 µM
[4] = human gut metagenome, 24 h, 2 µM; remark: listed apart in the source
[5] = as §1, with “WLS-350” for “WLS-039”, “ERS12561789” for “ERS12561746”; conditions: 2 µM
[6] = as §1, with “Z-006” for “WLS-039”, “mouse” for “human”, “ERS12561806” for “ERS12561746”; conditions: 2 µM
[7] = as §1, with “Z-018” for “WLS-039”, “pig” for “human”, “ERS12561817” for “ERS12561746”; conditions: 2 µM
[8] = human gut metagenome, 24 h, 2 µM; remark: listed apart in the source
[9] = as §1, with “Z-030” for “WLS-039”, “mouse” for “human”, “ERS12561829” for “ERS12561746”; conditions: 2 µM
[10] = human gut metagenome, 24 h, 2 µM; remark: listed apart in the source
[11] = as §1, with “WLS-310” for “WLS-039”, “ERS12561785” for “ERS12561746”; conditions: 2 µM
[12] = as §1, with “WLS-170” for “WLS-039”, “ERS12561762” for “ERS12561746”; conditions: 2 µM
[13] = as §1, with “WLS-086” for “WLS-039”, “ERS12561752” for “ERS12561746”; conditions: 2 µM
[14] = human gut metagenome, 24 h, 2 µM; remark: listed apart in the source
[15] = human gut metagenome, 24 h, 2 µM; remark: listed apart in the source
[16] = human gut metagenome, 24 h, 2 µM; remark: listed apart in the source
[17] = as §1, with “WLS-069” for “WLS-039”, “ERS12561748” for “ERS12561746”; conditions: 2 µM
[18] = human gut metagenome, 24 h, 2 µM; remark: listed apart in the source
[19] = as §1, with “Z-028” for “WLS-039”, “mouse” for “human”, “ERS12561827” for “ERS12561746”; conditions: 2 µM
[20] = as §1, with “Z-017” for “WLS-039”, “mouse” for “human”, “ERS12561816” for “ERS12561746”; conditions: 2 µM
Note: call rule not given here.

Row | Compound | Bacterial Biotransformation [1] | Bacterial Biotransformation [2] | Bacterial Biotransformation [3] | Bacterial Biotransformation [4] | Bacterial Biotransformation [5] | Bacterial Biotransformation [6] | Bacterial Biotransformation [7] | Bacterial Biotransformation [8] | Bacterial Biotransformation [9] | Bacterial Biotransformation [10] | Bacterial Biotransformation [11] | Bacterial Biotransformation [12] | Bacterial Biotransformation [13] | Bacterial Biotransformation [14] | Bacterial Biotransformation [15] | Bacterial Biotransformation [16] | Bacterial Biotransformation [17] | Bacterial Biotransformation [18] | Bacterial Biotransformation [19] | Bacterial Biotransformation [20]
1 | CCc1nc(N)nc(N)c1-c1ccc(Cl)cc1 [PYRIMETHAMINE] | Compound NOT metabolized | Compound metabolized | Compound NOT metabolized | Compound metabolized | Compound NOT metabolized | Compound NOT metabolized | Compound NOT metabolized | Compound NOT metabolized | Compound NOT metabolized | Compound NOT metabolized | Compound NOT metabolized | Compound NOT metabolized | Compound metabolized | Compound NOT metabolized | Compound NOT metabolized | Compound NOT metabolized | Compound NOT metabolized | Compound NOT metabolized | Compound NOT metabolized | Compound NOT metabolized
2 | CC(C)NCC(O)COc1ccc(COCCOC(C)C)cc1.CC(C)NCC(O)COc1ccc(COCCOC(C)C)cc1.O=C(O)/C=C/C(=O)O (stereo not given) [BISOPROLOL FUMARATE] | Compound NOT metabolized | Compound metabolized | Compound NOT metabolized | Compound metabolized | Compound NOT metabolized | Compound NOT metabolized | Compound NOT metabolized | Compound metabolized | Compound NOT metabolized | Compound NOT metabolized | Compound NOT metabolized | Compound metabolized | Compound metabolized | Compound NOT metabolized | Compound metabolized | Compound metabolized | Compound NOT metabolized | Compound NOT metabolized | Compound NOT metabolized | Compound NOT metabolized
3 | CN1CCN(C2=Nc3cc(Cl)ccc3Nc3ccccc32)CC1 [CLOZAPINE] | Compound metabolized | Compound metabolized | Compound NOT metabolized | Compound metabolized | Compound metabolized | Compound NOT metabolized | Compound NOT metabolized | Compound NOT metabolized | Compound NOT metabolized | Compound NOT metabolized | Compound metabolized | Compound metabolized | Compound metabolized | Compound NOT metabolized | Compound NOT metabolized | Compound metabolized | Compound NOT metabolized | Compound NOT metabolized | Compound NOT metabolized | Compound NOT metabolized
4 | CN1C(C(=O)Nc2ccccn2)=C(O)c2sccc2S1(=O)=O [TENOXICAM] | Compound NOT metabolized | Compound NOT metabolized | Compound NOT metabolized | Compound NOT metabolized | Compound metabolized | Compound NOT metabolized | Compound NOT metabolized | Compound NOT metabolized | Compound NOT metabolized | Compound NOT metabolized | Compound NOT metabolized | Compound NOT metabolized | Compound NOT metabolized | Compound NOT metabolized | Compound NOT metabolized | Compound NOT metabolized | Compound NOT metabolized | Compound NOT metabolized | Compound NOT metabolized | Compound NOT metabolized
5 | CCOC(=O)[C@H](CCc1ccccc1)N[C@@H](C)C(=O)N1[C@H](C(=O)O)C[C@@H]2CCC[C@@H]21 | Compound metabolized | Compound metabolized | Compound metabolized | Compound metabolized | Compound metabolized | Compound NOT metabolized | Compound metabolized | Compound NOT metabolized | Compound NOT metabolized | Compound metabolized | Compound metabolized | Compound metabolized | Compound metabolized | Compound metabolized | Compound metabolized | Compound metabolized | Compound metabolized | Compound metabolized | Compound NOT metabolized | Compound NOT metabolized
6 | O=C1[C@H](CC[C@H](O)c2ccc(F)cc2)[C@@H](c2ccc(O)cc2)N1c1ccc(F)cc1 [EZETIMIBE] | Compound NOT metabolized | Compound metabolized | Compound metabolized | Compound NOT metabolized | Compound NOT metabolized | Compound NOT metabolized | Compound NOT metabolized | Compound NOT metabolized | Compound NOT metabolized | Compound NOT metabolized | Compound NOT metabolized | Compound metabolized | Compound metabolized | Compound NOT metabolized | Compound NOT metabolized | Compound metabolized | Compound metabolized | Compound NOT metabolized | Compound NOT metabolized | Compound NOT metabolized
